The subject of data set [1] is Mycobacterium tuberculosis. The experiment in a line: Antitubercular activity against Mycobacterium tuberculosis H37Ra ATCC 25177 assessed as reduction in microbial growth after 7 days by Alamar blue assay. The format is functional. As to conditions: H37Ra ATCC 25177, 168 h, time 7 day.
For a further data set, the system named is Vero. The data set is described as follows: Cytotoxicity against African green monkey Vero cells incubated for 24 hrs by MTT assay. The format is cell-based. The following applies: Chlorocebus sabaeus. (Tetrazolium assays rely on reduction of a dye to a coloured formazan, in cell work by metabolically active cells.)
The nature of data set [2]: Stability of compound in acetonitrile at 6.48 10^-5mol/L after 48 hrs by HPLC-DAD method. The format is physicochemical. As to conditions: at 64.8 µM.
A short description of data set [3]: Stability of compound in acetonitrile assessed as retention time at 6.48 10^-5mol/L up to 48 hrs by HPLC-DAD method. It is filed as physicochemical.
Data set [4] is described as follows: Selectivity index, ratio of IC50 for cytotoxicity against African green monkey Vero cells to MIC for antimycobacterial activity against Mycobacterium tuberculosis H37Ra ATCC 25177. The format is toxicity, cell-based. The following applies: read-out: Selectivity Index.
Data set [5] in a line: Stability of compound in acetonitrile assessed as retention time at 4.52 10^-5mol/L up to 48 hrs by HPLC-DAD method. It is filed as physicochemical.
Data set [6] in a line: Stability of compound in acetonitrile at 4.52 10^-5mol/L after 48 hrs by HPLC-DAD method. The format is physicochemical. The following applies: at 45.2 µM.
Data set [7] in a line: Stability of compound in acetonitrile at 6 10^-5mol/L after 48 hrs by HPLC-DAD method. It is filed as physicochemical. The following applies: at 60 µM.
Data set [8] is described as follows: Stability of compound in acetonitrile assessed as retention time at 6 10^-5mol/L up to 48 hrs by HPLC-DAD method. It is filed as physicochemical.
Data set [9] is described as follows: Stability of compound in acetonitrile at 4.81 10^-5mol/L after 48 hrs by HPLC-DAD method. The following applies: at 48.1 µM. It is filed as physicochemical.
Data set [10] is described as follows: Stability of compound in acetonitrile assessed as retention time at 4.81 10^-5mol/L up to 48 hrs by HPLC-DAD method. The format is physicochemical.
Data set [11] in a line: Stability of compound in acetonitrile at 6.05 10^-5mol/L after 48 hrs by HPLC-DAD method. The format is physicochemical. As to conditions: at 60.5 µM.
A short description of data set [12]: Stability of compound in acetonitrile assessed as retention time at 6.05 10^-5mol/L up to 48 hrs by HPLC-DAD method. The format is physicochemical.
A short description of data set [13]: Stability of compound in acetonitrile at 4.76 10^-5mol/L after 48 hrs by HPLC-DAD method. It is filed as physicochemical. The following applies: at 47.6 µM.
A short description of data set [14]: Stability of compound in acetonitrile assessed as retention time at 4.23 10^-5mol/L up to 48 hrs by HPLC-DAD method. It is filed as physicochemical.
The nature of data set [15]: Stability of compound in acetonitrile at 4.23 10^-5mol/L after 48 hrs by HPLC-DAD method. It is filed as physicochemical. As to conditions: at 42.3 µM.

By MIC is commonly meant the lowest concentration found to suppress growth. In general, IC50 refers to the concentration that inhibits the measured activity by half.

Molecules are shown by their SMILES. In brackets after ≈: the same amount, converted by molar mass.

Turning to `O=C(CC1SC(=O)NC1=O)Oc1cccc(/C=N/NC(=O)c2ccc(Cl)cc2Cl)c1` (stereo not drawn), in data set [1], the MIC came to 128 µg/mL.
Still for that read-out and setting: for `COc1cc(/C=N/NC(=O)c2cccc(Cl)c2)ccc1OC(=O)CC1SC(=O)NC1=O` (stereo not drawn) the value was 128 µg/mL.
Still for that read-out and setting: for `O=C(/C=C1/SC(=O)NC1=O)Oc1ccccc1/C=N/NC(=O)c1cccnc1` the value was 128 µg/mL.
`O=C(CC1SC(=O)NC1=O)Oc1ccc(/C=N/NC(=O)c2cccnc2)cc1` (stereo not drawn): in data set [1], the minimum inhibitory concentration (MIC) is 512 µg/mL.
`O=C(CC1SC(=O)NC1=O)Oc1ccc(/C=N/NC(=O)c2ccncc2)cc1` (stereo not drawn): in the data set with Vero, the IC50 came to 91.7 µg/mL (≈ 230 µM). Besides, the Stabilty entry in data set [2] is recorded as “Stable”. Moreover, in [3], the Retention_time came out at 3.48 min. Also, in data set [4], the selectivity ratio turned out to be 91.7. The MIC in [1] was determined as 1 µg/mL.
`COc1cc(/C=N/NC(=O)c2ccc(Cl)cc2Cl)ccc1OC(=O)CC1SC(=O)NC1=O` (stereo not drawn): in [1], the MIC amounted to 128 µg/mL.
In turn, `CCOc1cc(/C=N/NC(=O)c2ccncc2)ccc1OC(=O)CC1SC(=O)NC1=O` (stereo not drawn) gave an IC50 in the data set with Vero of 50.9 µg/mL (≈ 115 µM). For the same molecule, in [5], the Retention_time amounted to 7.64 min. In addition, in [6], the Stabilty result was “Stable”. Moreover, the selectivity ratio in [4] came to 50.9. In addition, the MIC in data set [1] came to 1 µg/mL.
For the molecule `O=C(/C=C1/SC(=O)NC1=O)Oc1cccc(/C=N\NC(=O)c2ccncc2)c1`, inhibition in the data set with Vero was half-maximal at 143 µg/mL (≈ 361 µM) (IC50). Moreover, the Stabilty entry in data set [7] was “Stable”. Besides, in data set [8], the Retention_time turned out to be 4.36 min. Besides, the selectivity ratio in data set [4] turned out to be 143. Moreover, the MIC in [1] is 1 µg/mL.
In the data set with Vero, `O=C(CC1SC(=O)NC1=O)Oc1ccc(/C=N/NC(=O)c2ccncc2)cc1Cl` (stereo not drawn) gave an IC50 of 31.9 µg/mL (≈ 73.7 µM). In addition, the Stabilty entry in data set [9] is on record as “Stable”. Further, in data set [4], the selectivity ratio came to 31.9. Moreover, the Retention_time in data set [10] is reported as 7.59 min. Further, in data set [1], the MIC came to 1 µg/mL.
Take `O=C(CC1SC(=O)NC1=O)Oc1ccc(/C=N/NC(=O)c2ccc(Cl)cc2Cl)cc1` (stereo not drawn): the MIC in data set [1] was 64 µg/mL.
As for `O=C(CC1SC(=O)NC1=O)Oc1ccc(/C=N/NC(=O)c2ccc(Br)cc2)cc1` (stereo not drawn), the MIC in data set [1] stood at 256 µg/mL.
`NNC(=O)c1ccncc1` [ISONIAZID]: the MIC in data set [1] was found to be 0.25 µg/mL.
In the data set with Vero, `O=C(/C=C1/SC(=O)NC1=O)Oc1ccccc1/C=N/NC(=O)c1ccncc1` registered a half-maximal inhibitory concentration (IC50) greater than 200 µg/mL. The Stabilty result in data set [11] is “Stable”. Moreover, the Retention_time in [12] amounted to 4.36 min. Besides, the selectivity ratio in data set [4] was greater than 50. In addition, in [1], the MIC turned out to be 4 µg/mL.
Take `O=C(/C=C1/SC(=O)NC1=O)Oc1ccc(/C=N/NC(=O)c2cccc(Cl)c2)cc1`: the MIC in data set [1] came out at 128 µg/mL.
Take `CC[C@@H](CO)NCCN[C@@H](CC)CO` [ETHAMBUTOL]: the MIC in data set [1] was 2 µg/mL.
Molecule `CO[C@H]1/C=C/O[C@@]2(C)Oc3c(C)c(O)c4c(O)c(c(/C=N/N5CCN(C)CC5)c(O)c4c3C2=O)NC(=O)/C(C)=C\C=C\[C@H](C)[C@H](O)[C@@H](C)[C@@H](O)[C@@H](C)[C@H](OC(C)=O)[C@@H]1C` [RIFAMPIN] displayed an IC50 in the data set on Vero of 138 µg/mL (≈ 167 µM). In addition, the selectivity ratio in data set [4] is 34400. Also, in data set [1], the MIC came out at 0.004 µg/mL.
As to `COc1cc(/C=N/NC(=O)c2ccncc2)ccc1OC(=O)CC1SC(=O)NC1=O` (stereo not drawn), the IC50 in the data set with Vero was 203 µg/mL (≈ 475 µM). In [13], the Stabilty entry is recorded as “Stable”. In addition, the selectivity ratio in [4] was 203. Moreover, the minimal inhibitory concentration (MIC) in [1] came out at 1 µg/mL.
In the case of `CN[C@@H]1[C@H](O[C@H]2[C@H](O[C@H]3[C@H](O)[C@@H](O)[C@H](N=C(N)N)[C@@H](O)[C@@H]3N=C(N)N)O[C@@H](C)[C@]2(O)C=O)O[C@@H](CO)[C@H](O)[C@H]1O` [STREPTOMYCIN], the MIC in data set [1] is 0.5 µg/mL.
Take `O=C(CC1SC(=O)NC1=O)Oc1ccc(/C=N/NC(=O)c2ccc(Cl)cc2)cc1` (stereo not drawn): the MIC in data set [1] came to 128 µg/mL.
As for `CCOc1cc(/C=N/NC(=O)c2ccccn2)ccc1OC(=O)CC1SC(=O)NC1=O` (stereo not drawn), the MIC in data set [1] is greater than 512 µg/mL.
On the same count and under the same terms, the result for `COc1cc(/C=N/NC(=O)c2cccc(Cl)c2)ccc1OC(=O)/C=C1/SC(=O)NC1=O` reads 128 µg/mL.
On the same count and under the same terms, the result for `O=C(CC1SC(=O)NC1=O)Oc1ccc(/C=N/NC(=O)c2cccnc2)cc1Br` (stereo not drawn) reads 512 µg/mL.
As to `O=C(CC1SC(=O)NC1=O)Oc1ccc(/C=N/NC(=O)c2ccncc2)cc1Br` (stereo not drawn), in the data set on Vero, the IC50 came to 190 µg/mL (≈ 398 µM). For the same molecule, the Retention_time in [14] is 8.8 min. For the same molecule, the selectivity ratio in [4] is 190. Moreover, in [1], the MIC was found to be 1 µg/mL. For the same molecule, the Stabilty entry in data set [15] is recorded as “Stable”.
For the molecule `CCOc1cc(/C=N/NC(=O)c2cccnc2)ccc1OC(=O)CC1SC(=O)NC1=O` (stereo not drawn), the MIC in data set [1] is greater than 512 µg/mL.
In the case of `O=C(/C=C1/SC(=O)NC1=O)Oc1ccccc1/C=N/NC(=O)c1ccccn1`, the MIC in [1] was determined as 16 µg/mL.
Turning to `O=C(/C=C1/SC(=O)NC1=O)Oc1ccccc1/C=N/NC(=O)c1cccc(Cl)c1`, the MIC in data set [1] amounted to 64 µg/mL.
Still for that read-out and setting: the result for `O=C(CC1SC(=O)NC1=O)Oc1ccc(/C=N/NC(=O)c2cccnc2)cc1Cl` (stereo not drawn) reads 512 µg/mL; that for `O=C(CC1SC(=O)NC1=O)Oc1cccc(/C=N/NC(=O)c2cccc(Cl)c2)c1` (stereo not drawn), 128 µg/mL.
Still for that read-out and setting: the result for `O=C(CC1SC(=O)NC1=O)Oc1ccc(/C=N/NC(=O)c2cccc(Cl)c2)cc1` (stereo not drawn) reads 128 µg/mL.

The record behind these values is ChEMBL document CHEMBL4680164, “Synthesis and antimycobacterial activity of thiazolidine-2,4-dione based derivatives with halogenbenzohydrazones and pyridinecarbohydrazones substituents” (Eur J Med Chem, 2020).
